Here are results for five substances from US20260158056A1, “USE OF LOW MOLECULAR WEIGHT HYALURONIC ACID FOR THE TREATMENT OF LUNG MUCOSAL INFLAMMATION” (INSTITUT NATIONAL DE LA SANTÉ ET DE LA RECHERCHE MÉDICALE, priority 2021, published 2026).

Assay [1] relates to mucin MUC-5B secreted by F508del/F508del CF human airway epithelial cells. Nature of the assay: MUC-5B ELISA, CF airway epithelial cells cultured at the air-liquid interface (ALI). In kind it is cell-based. How it is done:
FIG. 8: Measurement by ELISA assay of the mucin MUC-5B secreted by F508del/F508del CF human airway epithelial cells cultured at the air-liquid interface (ALI). Airway epithelial cells were seeded in bi-compartmental chambers and cultured in liquid-liquid condition until confluence was reached. At confluence, culture medium from the upper chamber was removed to create an air-liquid interface (ALI) that will favor epithelial cell differentiation. From the ALI creation, the different treatments (15-45 kDa sodium-hyaluronic acid (HA-Na 15-45 kDa) (ARD—Pomacle—France—as prepared according to WO2004050187), 15-30 kDa sodium-hyaluronic acid (HA-Na 15-30 kDa) (Sigma Aldrich), or 30-50 kDa sodium-hyaluronic acid (HA-Na 30-50 kDa) (Sigma Aldrich)) were added at 1 mg/mL to the culture medium in the basal chamber. The culture medium was renewed three times a week. At ALI day 15 and ALI Day 25, the culture in the upper chamber was rinsed with PBS then, a small volume of fresh medium without any treatment was placed at the contact of the apical part of the epithelium. After a 4 h-period, this apical culture medium was collected and the MUC-5B content was determined by ELISA assay. n=3 different F508del/F508del CF patients. p<0.001 (***); p<0.01 (**); p<0.05 (*). ns: non-significant.
FIG. 9: Measurement by ELISA assay of the mucin MUC-5B secreted by F508del/F508del CF human airway epithelial cells cultured at the air-liquid interface (ALI). Airway epithelial cells were seeded in bi-compartmental chambers and cultured in liquid-liquid condition until confluence was reached. At confluence, culture medium from the upper chamber was removed to create an air-liquid interface (ALI) that will favor epithelial cell differentiation. From the ALI creation, the different treatments (15-45 kDa sodium-hyaluronic acid (HA-Na 15-45 kDa) (ARD—Pomacle—France—as prepared according to WO2004050187), 15-45 kDa calcium-hyaluronic acid (HA-Ca 15-45 kDa; ARD), or 15-45 kDa potassium-hyaluronic acid (HA-K 15-45 kDa; ARD) were added at 1 mg/mL to the culture medium in the basal chamber. The culture medium was renewed three times a week. At ALI day 15 and ALI Day 25, the culture in the upper chamber was rinsed with PBS then, a small volume of fresh medium without any treatment was placed at the contact of the apical part of the epithelium. After a 4 h-period, this apical culture medium was collected and the MUC-5B content was determined by ELISA assay. n=3 different F508del/F508del CF patients. p<0.001 (***); p<0.01 (**); p<0.05 (*). ns: non-significant.
FIG. 10: Measurement by ELISA assay of the mucin MUC-5B secreted by F508del/F508del CF human airway epithelial cells cultured at the air-liquid interface (ALI). Airway epithelial cells were seeded in bi-compartmental chambers and cultured in liquid-liquid condition until confluence was reached. At confluence, culture medium from the upper chamber was removed to create an air-liquid interface (ALI) that will favor epithelial cell differentiation. From the ALI creation, 15-45 kDa sodium-hyaluronic acid (HA-Na 15-45 kDa) (ARD—Pomacle—France—as prepared according to WO2004050187) was added at 2 mg/mL, 1 mg/mL or 0.5 mg/mL to the culture medium in the basal chamber. The culture medium was renewed three times a week. At ALI day 15 and ALI Day 25, the culture in the upper chamber was rinsed with PBS then, a small volume of fresh medium without any treatment was placed at the contact of the apical part of the epithelium. After a 4 h-period, this apical culture medium was collected and the MUC-5B content was determined by ELISA assay. n=3 different F508del/F508del CF patients. p<0.001 (***); p<0.01 (**); p<0.05 (*). ns: non-significant.

Assay [2] deals with IL-8 secreted by non-CF human airway epithelial cells. Nature of the assay: IL-8 ELISA, non-CF airway epithelial cells cultured at the air-liquid interface (ALI). The assay is classed as cell-based. The note with it: FIG. 11, 14; 1 mg/mL from ALI creation, ALI day 15, vs control condition; n=1 non-CF patient. How it is done: FIG. 11: Measurement by ELISA assay of the pro-inflammatory chemokine IL-8 secreted by non-CF human airway epithelial cells cultured at the air-liquid interface (ALI). Airway epithelial cells were seeded in bi-compartmental chambers and cultured in liquid-liquid condition until confluence was reached. At confluence, culture medium from the upper chamber was removed to create an air-liquid interface (ALI) that will favor epithelial cell differentiation. From the ALI creation, the different treatments (15-45 kDa sodium-hyaluronic acid (HA-Na 15-45 kDa) (ARD—Pomacle—France—as prepared according to WO2004050187), 15-30 kDa sodium-hyaluronic acid (HA-Na 15-30 kDa) (Sigma Aldrich), or 30-50 kDa sodium-hyaluronic acid (HA-Na 30-50 kDa) (Sigma Aldrich)) were added at 1 mg/mL to the culture medium in the basal chamber. The culture medium was renewed three times a week. At ALI day 15, the culture medium was replaced by fresh medium without any treatment. After a 4 h-period, this culture medium was collected and the IL-8 content was determined by ELISA assay. n=1 non-CF patient. p<0.001 (***); p<0.01 (**); p<0.05 (*). ns: non-significant.
FIG. 14: Measurement by ELISA assay of the pro-inflammatory chemokine IL-8 secreted by non-CF human airway epithelial cells cultured at the air-liquid interface (ALI). Airway epithelial cells were seeded in bi-compartmental chambers and cultured in liquid-liquid condition until confluence was reached. At confluence, culture medium from the upper chamber was removed to create an air-liquid interface (ALI) that will favor epithelial cell differentiation. From the ALI creation, the different treatments (15-45 kDa sodium-hyaluronic acid (HA-Na 15-45 kDa) (ARD—Pomacle—France—as prepared according to WO2004050187), 15-45 kDa calcium-hyaluronic acid (HA-Ca 15-45 kDa; ARD) or 15-45 kDa potassium-hyaluronic acid (HA-K 15-45 kDa; ARD) were added at 1 mg/mL to the culture medium in the basal chamber. The culture medium was renewed three times a week. At ALI day 15, the culture medium was replaced by fresh medium without any treatment. After a for 4 h-period, this culture medium was collected and the IL-8 content was determined by ELISA assay. n=1 non-CF patient. p<0.001 (***); p<0.01 (**); p<0.05 (*). ns: non-significant.
Background: An ELISA detects its analyte on a solid surface through an enzyme-linked reagent.

Setting [3] is: 1 mg/mL, ALI day 15, vs control condition, n=3 CF patients.
Setting [4] is: 1 mg/mL, ALI day 25, vs control condition, n=3 CF patients.

For the substance “15-45 kDa potassium-hyaluronic acid [HA-K 15-45 kDa]”, the “decrease in MUC-5B secretion” value in assay [1] (setting [3]) turned out to be 34.7%. In addition, the “decrease in IL-8 secretion” value in assay [2] came out at 57.9%.
For “15-45 kDa sodium-hyaluronic acid [HA-Na 15-45 kDa]”, the “decrease in MUC-5B secretion” value is 37.3% in assay [1] (setting [3]); 33.2% in assay [1] (setting [4]); “does not have any effect” in assay [1] (FIG. 10, 0.5 mg/mL, ALI day 15 and ALI day 25); 97.9% in assay [1] (FIG. 10, 2 mg/mL, ALI day 15); 81.2% in assay [1] (FIG. 10, 2 mg/mL, ALI day 25). Also, the “decrease in IL-8 secretion” value in assay [2] amounted to 69.7%.
Consider “15-45 kDa calcium-hyaluronic acid [HA-Ca 15-45 kDa]”, for which the results for the “decrease in MUC-5B secretion” value in assay [1] (setting [3]) and in assay [1] (setting [4]) were 85.5% and 58.8%, respectively. In assay [2], the “decrease in IL-8 secretion” value is 70.5%.
“15-30 kDa sodium-hyaluronic acid [HA-Na 15-30 kDa]”: the “decrease in MUC-5B secretion” value in assay [1] (setting [3]) worked out at 14.1%; in assay [1] (setting [4]), 17.3%. Besides, the “decrease in IL-8 secretion” value in assay [2] is 60.6%.
Take “30-50 kDa sodium-hyaluronic acid [HA-Na 30-50 kDa]”: the “decrease in MUC-5B secretion” value in assay [1] (setting [3]) is reported as 68.7%; in assay [1] (setting [4]), 67.1%. Besides, the “decrease in IL-8 secretion” value in assay [2] is 66.6%.
